Results published in PubChem BioAssay AID328 (DTP/NCI, 2004).
Where “and” joins values, the source holds several entries; their conditions need not be identical. Equal entries are not always repeated. Inconclusive results and toxic doses are left out. The calls were made as follows: active = survival T/C of 150% or more; inactive = T/C below 125% in these data.

System: BDF1 mice, P388 leukemia ip, median survival T/C
Assay: NCI In Vivo Anticancer Drug Screen. Data for tumor model P388 Leukemia (intraperitoneal) in B6D2F1 (BDF1) mice
Conditions: endpoint: median survival time, higher = longer survival
Procedure, shortened: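 Antitumour effect was judged in vivo: survival in drug-treated mice, normalised to that of vehicle-dosed controls, gives the reported T/C.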

[1] = dose: 50.0 mg/kg/injection, schedule: Q04DX003 (ip), vehicle: saline
[2] = dose: 100.0 mg/kg/injection, schedule: Q04DX003 (ip), vehicle: saline
[3] = dose: 200.0 mg/kg/injection, schedule: Q04DX003 (ip), vehicle: saline
[4] = dose: 100.0 mg/kg/injection, schedule: Q01DX009 (ip), vehicle: Klucel (hydroxypropylcellulose) (HPC)
[5] = dose: 100.0 mg/kg/injection, schedule: Q04DX003 (ip), vehicle: Klucel (hydroxypropylcellulose) (HPC)
[6] = dose: 200.0 mg/kg/injection, schedule: Q01DX009 (ip), vehicle: Klucel (hydroxypropylcellulose) (HPC)
[7] = dose: 200.0 mg/kg/injection, schedule: Q04DX003 (ip), vehicle: Klucel (hydroxypropylcellulose) (HPC)
[8] = dose: 400.0 mg/kg/injection, schedule: Q04DX003 (ip), vehicle: Klucel (hydroxypropylcellulose) (HPC)
[9] = dose: 50.0 mg/kg/injection, schedule: Q01DX009 (ip), vehicle: saline with Tween-80
[10] = dose: 100.0 mg/kg/injection, schedule: Q01DX009 (ip), vehicle: saline with Tween-80
[11] = dose: 50.0 mg/kg/injection, schedule: Q01DX005 (ip), vehicle: saline with Tween-80
[12] = dose: 100.0 mg/kg/injection, schedule: Q01DX005 (ip), vehicle: saline with Tween-80
[13] = dose: 200.0 mg/kg/injection, schedule: Q01DX005 (ip), vehicle: saline with Tween-80
[14] = dose: 25.0 mg/kg/injection, schedule: Q01DX009 (ip), vehicle: saline
[15] = dose: 100.0 mg/kg/injection, schedule: Q01DX009 (ip), vehicle: saline
[16] = dose: 200.0 mg/kg/injection, schedule: Q01DX009 (ip), vehicle: saline
[17] = dose: 400.0 mg/kg/injection, schedule: Q01DX009 (ip), vehicle: saline
[18] = dose: 400.0 mg/kg/injection, schedule: Q04DX003 (ip), vehicle: saline
[19] = dose: 200.0 mg/kg/injection, schedule: Q01DX009 (ip), vehicle: saline with Tween-80

Measured: T/C

COC(=O)CCC(=O)/C=C1/Nc2ccccc2C1=O
inactive: [1] 90 % of control | [2] 110 % of control | [3] 120 % of control

Cc1c(Cl)c(Cl)c(NS(=O)(=O)c2ccccc2)c(NS(=O)(=O)c2ccccc2)c1Cl
inactive: [4] 100 % of control | [5] 90 % of control | [6] 90 % of control | [7] 104 % of control | dose: 400.0 mg/kg/injection, schedule: Q01DX009 (ip), vehicle: Klucel (hydroxypropylcellulose) (HPC) 95 % of control | [8] 100 % of control

Cc1nc(C)c(Br)s1
inactive: dose: 25.0 mg/kg/injection, schedule: Q01DX009 (ip), vehicle: saline with Tween-80 100 % of control | [9] 100 % of control | [10] 107 % of control

COC(=O)c1cc(=O)nc(N/N=C/c2ccco2)s1
inactive: [11] 94 % of control | [12] 89 % of control | [13] 87 % of control

Nc1cc(NC(=O)c2ccc(Cl)cc2)ccc1S(=O)(=O)O
inactive: dose: 3.12 mg/kg/injection, schedule: Q01DX009 (ip), vehicle: saline 117 % of control | dose: 6.25 mg/kg/injection, schedule: Q01DX009 (ip), vehicle: saline 99 % of control | dose: 6.25 mg/kg/injection, schedule: Q04DX003 (ip), vehicle: Klucel (hydroxypropylcellulose) (HPC) 95 % of control | dose: 12.5 mg/kg/injection, schedule: Q01DX009 (ip), vehicle: saline 90 % of control | dose: 12.5 mg/kg/injection, schedule: Q04DX003 (ip), vehicle: Klucel (hydroxypropylcellulose) (HPC) 106 % of control | [14] 87 % of control | dose: 25.0 mg/kg/injection, schedule: Q04DX003 (ip), vehicle: Klucel (hydroxypropylcellulose) (HPC) 93 % of control | dose: 50.0 mg/kg/injection, schedule: Q04DX003 (ip), vehicle: Klucel (hydroxypropylcellulose) (HPC) 98 % of control | [5] 97 % of control

O=C(CI)Nc1ccc(Br)cc1
inactive: dose: 8.75 mg/kg/injection, schedule: Q01DX009 (ip), vehicle: Klucel (hydroxypropylcellulose) (HPC) 104 % of control | dose: 17.5 mg/kg/injection, schedule: Q01DX009 (ip), vehicle: Klucel (hydroxypropylcellulose) (HPC) 104 % of control | dose: 26.25 mg/kg/injection, schedule: Q04DX003 (ip), vehicle: Klucel (hydroxypropylcellulose) (HPC) 90 % of control | dose: 35.0 mg/kg/injection, schedule: Q01DX009 (ip), vehicle: Klucel (hydroxypropylcellulose) (HPC) 104 % of control

CCN(CC)Cc1c(O)ccc2c3c(c(=O)oc12)CCCC3
inactive: dose: 1.0 mg/kg/injection, schedule: Q01DX005 (ip), vehicle: saline 112 % of control | dose: 2.0 mg/kg/injection, schedule: Q01DX005 (ip), vehicle: saline 106 % of control | dose: 4.0 mg/kg/injection, schedule: Q01DX005 (ip), vehicle: saline 112 % of control | dose: 8.0 mg/kg/injection, schedule: Q01DX005 (ip), vehicle: saline 104 % of control | dose: 16.0 mg/kg/injection, schedule: Q01DX005 (ip), vehicle: saline 98 % of control | dose: 32.0 mg/kg/injection, schedule: Q01DX005 (ip), vehicle: saline 102 % of control | dose: 64.0 mg/kg/injection, schedule: Q01DX005 (ip), vehicle: saline 96 % of control

O=C(c1ccccc1)N1CCC(CCO)C(O)C1Cc1c[nH]c2ccccc12 (centres undefined)
inactive: [14] 100 % of control | dose: 50.0 mg/kg/injection, schedule: Q01DX009 (ip), vehicle: saline 96 % of control | [1] 96 % of control | [15] 86 % of control | [2] 100 % of control | [16] 108 % of control | [3] 96 % of control | [17] 110 % of control | [18] 98 % of control

CC(Cc1ccc2c(c1)OCO2)C(C)Cc1ccc2c(c1)OCO2 (centres undefined)
inactive: dose: 100.0 mg/kg/injection, schedule: Q01DX001 (ip), vehicle: Klucel (hydroxypropylcellulose) (HPC) 100 % of control | dose: 200.0 mg/kg/injection, schedule: Q01DX001 (ip), vehicle: Klucel (hydroxypropylcellulose) (HPC) 100 % of control | dose: 400.0 mg/kg/injection, schedule: Q01DX001 (ip), vehicle: Klucel (hydroxypropylcellulose) (HPC) 100 % of control

O=C1NC(=O)C(c2ccc(Cl)cc2)(c2ccccc2Cl)N1 (centres undefined)
inactive: dose: 100.0 mg/kg/injection, schedule: Q04DX003 (ip), vehicle: saline sonified 100 % of control | dose: 200.0 mg/kg/injection, schedule: Q04DX003 (ip), vehicle: saline sonified 95 % of control | dose: 400.0 mg/kg/injection, schedule: Q04DX003 (ip), vehicle: saline sonified 100 % of control

COC1=C(N)C(=O)c2nc(-c3nc(C=O)c(C)c(-c4ccc(OC)c(OC)c4O)c3N)ccc2C1=O
inactive: dose: 0.8 mg/kg/injection, schedule: Q01DX009 (ip), vehicle: dioxane 104 % of control | dose: 1.05 mg/kg/injection, schedule: Q01DX009 (ip), vehicle: dioxane 122 % of control | dose: 1.55 mg/kg/injection, schedule: Q01DX009 (ip), vehicle: dioxane 99 % of control | dose: 2.55 mg/kg/injection, schedule: Q01DX009 (ip), vehicle: dioxane 107 % of control | dose: 3.05 mg/kg/injection, schedule: Q01DX009 (ip), vehicle: dioxane 104 % of control | dose: 4.05 mg/kg/injection, schedule: Q01DX009 (ip), vehicle: dioxane 109 % of control | dose: 5.05 mg/kg/injection, schedule: Q01DX009 (ip), vehicle: dioxane 118 % of control

OC(CC1CCCCN1)c1cc(C(F)(F)F)nc2c(C(F)(F)F)cccc12 (centres undefined)
inactive: [9] 111 % of control

NC(=O)CC(NC(=O)OCc1ccccc1)C(=O)OCc1ccccc1 (centres undefined)
inactive: [9] 109 % of control | [10] 100 % of control | dose: 100.0 mg/kg/injection, schedule: Q04DX003 (ip), vehicle: saline with Tween-80 99 % of control | [19] 93 % of control | dose: 200.0 mg/kg/injection, schedule: Q04DX003 (ip), vehicle: saline with Tween-80 102 % of control | dose: 400.0 mg/kg/injection, schedule: Q01DX009 (ip), vehicle: saline with Tween-80 103 % of control | dose: 400.0 mg/kg/injection, schedule: Q04DX003 (ip), vehicle: saline with Tween-80 90 % of control

CCOCCc1ccccn1
inactive: [15] 100 % of control | [16] 104 % of control | [17] 122 % of control

COc1cc(C)ccc1C(=O)c1ccc(C)cc1OC
inactive: [5] 90 % of control | [7] 90 % of control | [8] 109 % of control

O=C(O)/C=C/C(=O)Nc1ccc(I)cc1
inactive: [9] 109 % of control | [10] 109 % of control | [19] 104 % of control

OCC1OC(n2cnc3c(SCc4ccccc4)nc(NO)nc32)C(O)C1O (centres undefined)
inactive: dose: 200.0 mg/kg/injection, schedule: Q01DX009 (ip), vehicle: acetone 100 % of control

Cn1ncc(=O)c(Cl)c1S
inactive: [11] 97 % of control | [12] 93 % of control | [13] 99 % of control

O=C(Cn1ccc(=O)[nH]c1=O)N1CCC2(CC1)SSC1(CCN(C(=O)Cn3ccc(=O)[nH]c3=O)CC1)S2
inactive: [2] 100 % of control | [3] 109 % of control | [18] 90 % of control

CCN1c2c(nc(N)[nH]c2=O)NCC1CNc1ccc(C(=O)NC(CCC(=O)O)C(=O)O)cc1 (centres undefined)
inactive: [15] 101 % of control | [16] 105 % of control | [17] 105 % of control

CC(O)C(O)C(N)CC=O (centres undefined)
inactive: dose: 1.25 mg/kg/injection, schedule: Q01DX001 (ip), vehicle: saline 100 % of control and 110 % of control | dose: 2.5 mg/kg/injection, schedule: Q01DX001 (ip), vehicle: saline 100 % of control and 110 % of control | dose: 5.0 mg/kg/injection, schedule: Q01DX001 (ip), vehicle: saline 100 % of control and 110 % of control | dose: 10.0 mg/kg/injection, schedule: Q01DX001 (ip), vehicle: saline 100 % of control and 105 % of control

O=C(NNc1ccc([N+](=O)[O-])cc1)c1ccccc1
inactive: dose: 50.0 mg/kg/injection, schedule: Q01DX009 (ip), vehicle: Klucel (hydroxypropylcellulose) (HPC) 100 % of control | [4] 90 % of control | [5] 115 % of control | [6] 100 % of control | [7] 100 % of control | [8] 95 % of control
